The source of these data is ChEMBL document CHEMBL4261568, “Pyrimidine Nucleotides Containing a (S)-Methanocarba Ring as P2Y6 Receptor Agonists” (Medchemcomm, 2017).

One series concerns the target P2Y purinoceptor 6 (Homo sapiens, UniProt Q15077). As to the kind of experiment: Agonist activity at human P2Y6 receptor expressed in human 1321N1 cells assessed as induction of calcium mobilization by FLIPR method. Type of series: functional, cell-based.
A short description of series [1]: Half life in human 1321N1 cell membranes. In kind it is ADME, cell-based.
Series [2] deals with T1, P2Y purinoceptor 11 (Homo sapiens) (UniProt Q96G91).
T1 sequence (whole entry): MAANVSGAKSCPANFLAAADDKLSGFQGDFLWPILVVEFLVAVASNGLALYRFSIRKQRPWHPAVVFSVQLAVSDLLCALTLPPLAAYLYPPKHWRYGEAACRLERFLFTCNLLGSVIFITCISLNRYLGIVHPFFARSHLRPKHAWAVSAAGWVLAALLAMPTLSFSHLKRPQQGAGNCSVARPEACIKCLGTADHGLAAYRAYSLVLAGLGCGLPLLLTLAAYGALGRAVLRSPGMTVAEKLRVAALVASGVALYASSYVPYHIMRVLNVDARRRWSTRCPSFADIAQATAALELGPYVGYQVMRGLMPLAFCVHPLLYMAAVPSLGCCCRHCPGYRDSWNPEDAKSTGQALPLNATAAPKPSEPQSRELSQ
As to the kind of experiment: Antagonist activity at human P2Y11 receptor expressed in human 1321N1 cells assessed as inhibition of calcium mobilization at 10 uM measured over 2 mins by Fluo-4 dye-based FLIPR method relative to control. In kind it is functional, cell-based. In general terms: A change in cytosolic calcium serves as a functional read-out for many receptors and channels.

The target in series [3] is P2Y purinoceptor 4 (Homo sapiens) (UniProt P51582). Briefly: Antagonist activity at human P2Y4 receptor expressed in human 1321N1 cells assessed as inhibition of calcium mobilization at 10 uM measured over 2 mins by Fluo-4 dye-based FLIPR method relative to control. In kind it is functional, cell-based.
The target is the same in series [4]. As to the kind of experiment: Agonist activity at human P2Y4 receptor expressed in human 1321N1 cells assessed as induction of calcium mobilization at 10 uM measured over 2 mins by Fluo-4 dye-based FLIPR method relative to control. In kind it is functional, cell-based.
Series [5] concerns the target P2Y purinoceptor 1 (Homo sapiens) (UniProt P47900). Briefly: Antagonist activity at human P2Y1 receptor expressed in human 1321N1 cells assessed as inhibition of calcium mobilization at 10 uM measured over 2 mins by Fluo-4 dye-based FLIPR method relative to control. Type of series: functional, cell-based.
Series [6] has as its target P2Y purinoceptor 2 (Homo sapiens) (UniProt P41231). As to the kind of experiment: Agonist activity at human P2Y2 receptor expressed in human 1321N1 cells assessed as induction of calcium mobilization at 10 uM measured over 2 mins by Fluo-4 dye-based FLIPR method relative to control. In kind it is functional, cell-based.
For series [7] the target is unchanged. Briefly: Antagonist activity at human P2Y2 receptor expressed in human 1321N1 cells assessed as inhibition of calcium mobilization at 10 uM measured over 2 mins by Fluo-4 dye-based FLIPR method relative to control. In kind it is functional, cell-based.
Series [8] deals with P2Y purinoceptor 1 (Homo sapiens) (UniProt P47900). Briefly: Agonist activity at human P2Y1 receptor expressed in human 1321N1 cells assessed as induction of calcium mobilization at 10 uM measured over 2 mins by Fluo-4 dye-based FLIPR method relative to control. In kind it is functional, cell-based.
Series [9] deals with T2, P2Y purinoceptor 14 (Homo sapiens) (UniProt Q15391).
T2 sequence (whole entry): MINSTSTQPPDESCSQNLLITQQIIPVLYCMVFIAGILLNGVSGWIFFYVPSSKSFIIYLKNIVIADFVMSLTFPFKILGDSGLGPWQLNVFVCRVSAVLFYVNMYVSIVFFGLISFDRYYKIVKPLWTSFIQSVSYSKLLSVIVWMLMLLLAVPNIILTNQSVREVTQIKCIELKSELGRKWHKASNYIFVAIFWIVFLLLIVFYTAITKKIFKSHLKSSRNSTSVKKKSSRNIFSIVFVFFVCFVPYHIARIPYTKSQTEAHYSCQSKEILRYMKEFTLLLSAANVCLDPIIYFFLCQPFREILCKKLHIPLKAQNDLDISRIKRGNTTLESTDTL
Briefly: Agonist activity at human P2Y14 receptor expressed in human 1321N1 cells assessed as induction of calcium mobilization at 10 uM measured over 2 mins by Fluo-4 dye-based FLIPR method relative to control. In kind it is functional, cell-based.

The source made the active and inactive calls. The calls are words filed in the database; no cut-off is given here.

Sequence of P2Y purinoceptor 2 (Homo sapiens) (P41231 whole entry): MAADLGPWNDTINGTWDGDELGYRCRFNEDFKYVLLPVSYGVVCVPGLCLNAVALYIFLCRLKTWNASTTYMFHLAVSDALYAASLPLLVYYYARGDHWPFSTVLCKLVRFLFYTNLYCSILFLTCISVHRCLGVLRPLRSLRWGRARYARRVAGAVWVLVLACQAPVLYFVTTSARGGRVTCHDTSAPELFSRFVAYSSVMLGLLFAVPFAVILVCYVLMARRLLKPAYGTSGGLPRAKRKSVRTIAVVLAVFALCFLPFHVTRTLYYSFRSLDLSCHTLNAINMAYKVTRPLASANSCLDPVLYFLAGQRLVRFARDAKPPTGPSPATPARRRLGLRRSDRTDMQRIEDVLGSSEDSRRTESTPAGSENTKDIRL
Sequence of P2Y purinoceptor 6 (Q15077 whole entry): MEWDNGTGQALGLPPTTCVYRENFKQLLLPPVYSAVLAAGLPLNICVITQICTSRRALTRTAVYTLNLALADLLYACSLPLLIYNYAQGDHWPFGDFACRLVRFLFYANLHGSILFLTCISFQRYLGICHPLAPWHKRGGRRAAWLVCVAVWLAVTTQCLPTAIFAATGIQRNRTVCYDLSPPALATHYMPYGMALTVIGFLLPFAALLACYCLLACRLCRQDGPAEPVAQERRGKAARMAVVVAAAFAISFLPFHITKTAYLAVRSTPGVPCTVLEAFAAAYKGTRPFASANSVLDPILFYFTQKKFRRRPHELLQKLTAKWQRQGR
Sequence of P2Y purinoceptor 1 (Homo sapiens) (P47900 whole entry): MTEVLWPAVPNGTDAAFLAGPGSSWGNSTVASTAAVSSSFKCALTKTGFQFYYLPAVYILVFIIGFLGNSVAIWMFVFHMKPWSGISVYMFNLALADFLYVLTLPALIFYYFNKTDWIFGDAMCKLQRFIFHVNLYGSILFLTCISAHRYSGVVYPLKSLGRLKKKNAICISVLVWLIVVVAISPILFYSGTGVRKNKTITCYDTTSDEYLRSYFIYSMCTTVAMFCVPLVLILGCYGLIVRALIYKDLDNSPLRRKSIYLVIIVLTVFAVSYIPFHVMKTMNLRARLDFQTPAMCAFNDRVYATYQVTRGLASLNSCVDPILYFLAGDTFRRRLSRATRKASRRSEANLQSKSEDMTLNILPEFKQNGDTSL
Sequence of P2Y purinoceptor 4 (Homo sapiens) (P51582 whole entry): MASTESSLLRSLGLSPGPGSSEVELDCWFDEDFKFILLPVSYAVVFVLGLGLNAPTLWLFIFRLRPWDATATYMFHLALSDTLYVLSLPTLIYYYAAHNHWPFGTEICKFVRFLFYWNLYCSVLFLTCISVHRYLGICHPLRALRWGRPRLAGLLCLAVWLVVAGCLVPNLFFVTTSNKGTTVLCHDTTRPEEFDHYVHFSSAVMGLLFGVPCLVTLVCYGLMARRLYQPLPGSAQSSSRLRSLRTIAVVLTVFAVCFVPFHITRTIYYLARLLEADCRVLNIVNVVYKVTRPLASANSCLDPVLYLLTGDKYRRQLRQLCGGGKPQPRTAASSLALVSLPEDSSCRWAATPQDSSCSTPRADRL

For orientation: EC50 means the concentration giving half of the maximal effect. As to `CO/N=c1/ccn([C@]23C[C@H]2[C@H](COP(=O)(O)OP(=O)(O)OP(=O)(O)OC[C@@H]2[C@@H](O)[C@@H](O)[C@@]4(n5ccc(=O)[nH]c5=O)C[C@@H]24)[C@@H](O)[C@H]3O)c(=O)[nH]1`, the EC50 at P2Y purinoceptor 6 amounted to 6.9 µM. What is called half-life is the time in which the quantity being followed falls by half. Higher therefore signals slow loss. In [1], `CO/N=c1/ccn([C@@H]2O[C@H](COP(=O)(O)OP(=O)(O)O)[C@@H](O)[C@H]2O)c(=O)[nH]1` gave a half-life of 55 min. `O=c1ccn([C@]23C[C@H]2[C@H](COP(=O)(O)CP(=O)(O)O)[C@@H](O)[C@H]3O)c(=O)[nH]1`: the EC50 at P2Y purinoceptor 6 stood at 47.1 µM.

On to `O=c1[nH]c(=O)n([C@@H]2O[C@H](COP(=O)(O)OP(=O)(O)O)[C@@H](O)[C@H]2O)cc1I`, for which the EC50 on P2Y purinoceptor 6 amounted to 0.0491 µM.

On to `CO/N=c1/ccn([C@]23C[C@H]2[C@H](COP(=O)(O)OP(=O)(O)O)[C@@H](O)[C@H]3O)c(=O)[nH]1`, for which the Imax in series [2] was -3.9%; in [3] it was 10%; in series [5] it was 17%; in [7], 16.8%. In addition, the %max in series [4] is 2.2%; in series [6], 8.9%; in series [8] it was -0.5%. The EC50 at P2Y purinoceptor 6 came out at 0.493 µM.

Take `O=c1[nH]/c(=N\OCc2ccccc2)ccn1[C@]12C[C@H]1[C@H](COP(=O)(O)OP(=O)(O)O)[C@@H](O)[C@H]2O`: the EC50 at P2Y purinoceptor 6 came to 0.793 µM. Regarding `O=c1[nH]/c(=N\OCc2ccccc2)ccn1[C@]12C[C@H]1[C@H](COP(=O)(O)CP(=O)(O)O)[C@@H](O)[C@H]2O`, the EC50 at P2Y purinoceptor 6 is 4.96 µM.

As for `O=c1[nH]c(=O)n([C@]23C[C@H]2[C@H](COP(=O)(O)OP(=O)(O)O)[C@@H](O)[C@H]3O)cc1I`, the EC50 at P2Y purinoceptor 6 stood at 0.44 µM.

For the molecule `CO/N=c1/ccn([C@]23C[C@H]2[C@H](COP(=O)(O)OP(=O)(O)OP(=O)(O)OC[C@@]24C[C@@H]2[C@@H](n2ccc(=O)[nH]c2=O)[C@H](O)[C@@H]4O)[C@@H](O)[C@H]3O)c(=O)[nH]1`, at P2Y purinoceptor 6, the EC50 came out at 0.705 µM. `O=c1[nH]/c(=N\OCc2ccccc2)ccn1[C@@H]1O[C@H](COP(=O)(O)CP(=O)(O)O)[C@@H](O)[C@H]1O`: the half-maximal effective concentration (EC50) at P2Y purinoceptor 6 is 2.36 µM. The same measure, in the same setting: the same measure for `CO/N=c1/ccn([C@]23C[C@H]2[C@H](COP(=O)(O)OP(=O)(O)OP(=O)(O)OC[C@@H]2[C@@H](O)[C@@H](O)[C@@]4(n5cc/c(=N/OC)[nH]c5=O)C[C@@H]24)[C@@H](O)[C@H]3O)c(=O)[nH]1`: 5.49 µM.

For `CO/N=c1/ccn([C@]23C[C@H]2[C@H](COP(=O)(O)OP(=O)(O)OP(=O)(O)OC[C@H]2O[C@@H](n4ccc(=O)[nH]c4=O)[C@H](O)[C@@H]2O)[C@@H](O)[C@H]3O)c(=O)[nH]1`, the Imax in [2] is 0.1%; in series [3], 25%; in [5], 56.8%; in series [7], 40.3%. Also, the %max in series [4] was 10.2%; in series [6], 16%; in series [8], -0.6%. Also, the EC50 on P2Y purinoceptor 6 amounted to 4.12 µM. With `CO/N=c1/ccn([C@]23C[C@H]2[C@H](COP(=O)(O)CP(=O)(O)O)[C@@H](O)[C@H]3O)c(=O)[nH]1`, the EC50 on P2Y purinoceptor 6 is 6.29 µM.

With `CCN(CC)CC.CCN(CC)CC.CO/N=c1/ccn([C@@H]2O[C@H](COP(=O)(O)OP(=O)(O)OP(=O)(O)OC[C@H]3O[C@@H](n4ccc(=O)[nH]c4=O)[C@H](O)[C@@H]3O)[C@@H](O)[C@H]2O)c(=O)[nH]1`, the EC50 on P2Y purinoceptor 6 turned out to be 1.2 µM. Moreover, the half-life in series [1] turned out to be 23 min. `O=c1ccn([C@@H]2O[C@H](COP(=O)(O)OP(=O)(O)O)[C@@H](O)[C@H]2O)c(=O)[nH]1`: the EC50 at P2Y purinoceptor 6 was determined as 0.132 µM.

For the molecule `O=c1ccn([C@]23C[C@H]2[C@H](COP(=O)(O)OP(=O)(O)O)[C@@H](O)[C@H]3O)c(=O)[nH]1`, the outcome in series [9] was inactive. Besides, the EC50 at P2Y purinoceptor 6 was 0.438 µM. Consider `CO/N=c1/ccn([C@@H]2O[C@H](COP(=O)(O)CP(=O)(O)O)[C@@H](O)[C@H]2O)c(=O)[nH]1`, for which the EC50 at P2Y purinoceptor 6 is 0.42 µM.
